Assay [1] concerns MiaPaca-2 (expressing KRAS G12C mutant). As to the kind of experiment: Proliferation Assay (Cell Viability Assay). The class given is cell-based. The settings on record: Homo sapiens, MIA PaCa-2; for pIC50: read-out: Proliferation in MiaPaca-2: IC50. The procedure, abridged:
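MiaPaca-2 cells (KRAS G12C) were grown in DMEM-high glucose with 10% FBS, seeded at 2000–5000 cells/well and cultured overnight. Compounds were added at 10 μM final, or as serial dilutions for IC50, in 0.3% DMSO/10% FBS for 2–4 days at 37 °C, 5% CO2. Viability was measured with CellTiter 96 Aqueous One and % inhibition calculated.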

The test system of assay [2] is Smad2/Smad3 phosphorylation. Briefly: Phospho-Smad2/3 Inhibition Assay (western blot), Panc-1. The class given is cell-based, human. The settings on record: at 10 μM, Panc-1 pancreatic cancer cell line; starred symbols = activation. In a few lines: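 Panc-1 cells (KRas G12D), starved overnight in 0.5% FBS, treated 3 h at 37° C with compound at 10 μM final (0.3% DMSO) or serial dilutions for IC50, then stimulated with 10 ng/ml TGF-b1 for 1 h. Phospho-Smad2 (Ser465/467) and phospho-Smad3 (Ser423/425) detected by western blot.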
In general terms: A western blot detects proteins with antibodies after separation by electrophoresis.

The next assay deals with TNF-alpha. As to the kind of experiment: TNF-alpha Quantification Assay (ELISA), LPS-stimulated RAW 264.7. The class given is cell-based. The settings on record: Mus musculus, RAW264.7; at 10 μM; read-out: TNFα: % inh. (In general: ELISA stands for enzyme-linked immunosorbent assay.)

pIC50: −log10 of the molar value. Read-outs that look alike come from different tables or passages of the source.

By IC50 is commonly meant the concentration that inhibits the measured activity by half.

Take `COC[C@@H]1CC[C@@H]1CNc1nc(-c2ccccn2)nn2cc(-c3ccn(C(C)C)n3)c(-c3ccccc3)c12` (racemic) [Compound 26, rac 6-(1-Isopropyl-1H-pyrazol-3-yl)-N-(((1S,2R)-2-(methoxymethyl)cyclobutyl)methyl)-5-phenyl-2-(pyridin-2-yl)pyrrolo[2,1-f][1,2,4]triazin-4-amine]: the pIC50 in assay [1] is 6.00 to 6.29. In addition, in assay [2], the “% inh of Smad2/3 phosphorylation in Panc-1” value (“% inh” below) is “C (C = 46-75% inhibition)”. Besides, in the assay with TNF-alpha, the inhibition at 10 µM is 1 to 24%.
The corresponding values for `Cc1c(-c2ccn(C(C)C)n2)cn2nc(-c3nccn3C)nc(Nc3nc(C4CC4)no3)c12` [Compound 70, 3-Cyclopropyl-N-(6-(1-isopropyl-1H-pyrazol-3-yl)-5-methyl-2-(1-methyl-1H-imidazol-2-yl)pyrrolo[2,1-f][1,2,4]triazin-4-yl)-1,2,4-oxadiazol-5-amine] are below 6.00, 0 (0 = 0% inhibition) and 1 to 24%.
The corresponding values for `COc1cccc(-c2cn3nc(-c4nccn4C)nc(O)c3c2-c2ccccc2)c1Cl` [Compound 28, 6-(2-Chloro-3-methoxyphenyl)-2-(1-methyl-1H-imidazol-2-yl)-5-phenylpyrrolo[2,1-f][1,2,4]triazin-4-ol] are below 6.00, 0 (0 = 0% inhibition) and 1 to 24%.
Taken in the same sequence, the figures for `Cc1c(-c2ccn(C)n2)cn2nc(-c3nccn3C)nc(Nc3cc(C4CCC4)[nH]n3)c12` [Compound 257, N-(5-Cyclobutyl-1H-pyrazol-3-yl)-5-methyl-2-(1-methyl-1H-imidazol-2-yl)-6-(1-methyl-1H-pyrazol-3-yl)pyrrolo[2,1-f][1,2,4]triazin-4-amine] were 6.30 to 6.82, “D* (D* = 76-100% activation)” and 25 to 49%.
On to `COc1cccc(-c2cn3nc(-c4nccn4C)nc(N[C@@H]4CC[C@@H](OC)C4)c3c2-c2ccccc2)c1F` (racemic) [Compound 43, rac 6-(2-Fluoro-3-methoxyphenyl)-N-((1R,3R)-3-methoxycyclopentyl)-2-(1-methyl-1H-imidazol-2-yl)-5-phenylpyrrolo[2,1-f][1,2,4]triazin-4-amine], for which the pIC50 in assay [1] was below 6.00. Moreover, the “% inh” value in assay [2] was “D (D = 76-100% inhibition)”. Further, the inhibition at 10 µM with TNF-alpha lay within 1 to 24%.
Consider `COc1ccc(-c2cn3nc(-c4nccn4C)nc(Nc4cc(OC)ncn4)c3c2C)cn1` [Compound 66, 6-(6-Methoxypyridin-3-yl)-N-(6-methoxypyrimidin-4-yl)-5-methyl-2-(1-methyl-1H-imidazol-2-yl)pyrrolo[2,1-f][1,2,4]triazin-4-amine], for which the pIC50 in assay [1] is below 6.00. Also, the “% inh” value in assay [2] is on record as “A* (A* = 1-25% activation)”. In addition, the inhibition at 10 µM in the assay on TNF-alpha lay within 1 to 24%.
Consider `COc1cc(Nc2nc(-c3nccn3C)nn3cc(-c4ccncc4)c(C)c23)ncn1` [Compound 49, N-(6-Methoxypyrimidin-4-yl)-5-methyl-2-(1-methyl-1H-imidazol-2-yl)-6-(pyridin-4-yl)pyrrolo[2,1-f][1,2,4]triazin-4-amine], for which the pIC50 in assay [1] is above 6.82. Moreover, the “% inh” value in assay [2] is “B (B = 26-45% inhibition)”. In the assay on TNF-alpha, the inhibition at 10 µM fell in the range of 1 to 24%.
As for `Cc1cc(Nc2nc(-c3nccn3C)nn3cc(-c4ccn(C)n4)c(C)c23)n[nH]1` [Compound 255, 5-Methyl-2-(1-methyl-1H-imidazol-2-yl)-6-(1-methyl-1H-pyrazol-3-yl)-N-(5-methyl-1H-pyrazol-3-yl)pyrrolo[2,1-f][1,2,4]triazin-4-amine], the half-maximal inhibitory concentration (IC50) in assay [1] (Proliferation assay, MiaPaca-2, read-out: MiaPaca-2 IC50 (nM) Pancreatic) lay in the range of 1 to 10 nM. In addition, the pIC50 in assay [1] was above 6.82. In addition, in assay [2], the “% inh” value is “D* (D* = 76-100% activation)”. Further, in the assay with TNF-alpha, the inhibition at 10 µM was in the range of 1 to 24%.
`COc1cccc(-c2cn3nc(-c4nccn4C)nc(N[C@H]4C[C@@H](OC)C4)c3c2-c2ccccc2)c1C` [Compound 269, 6-(3-Methoxy-2-methylphenyl)-N-((1s,3s)-3-methoxycyclobutyl)-2-(1-methyl-1H-imidazol-2-yl)-5-phenylpyrrolo[2,1-f][1,2,4]triazin-4-amine]: the pIC50 in assay [1] is 6.00 to 6.29. Besides, the “% inh” value in assay [2] is “D (D = 76-100% inhibition)”. In the assay with TNF-alpha, the inhibition at 10 µM was in the range of 75 to 100%.
Taken in the same sequence, the figures for `CCOc1cc(Nc2nc(-c3nccn3C)nn3cc(-c4ccn(C)n4)c(C)c23)n[nH]1` [Compound 260, N-(5-Ethoxy-1H-pyrazol-3-yl)-5-methyl-2-(1-methyl-1H-imidazol-2-yl)-6-(1-methyl-1H-pyrazol-3-yl)pyrrolo[2,1-f][1,2,4]triazin-4-amine] were below 6.00, “A* (A* = 1-25% activation)” and 25 to 49%.
In the case of `Cc1c(-c2ccn(C)n2)cn2nc(-c3nccn3C)nc(Nc3cc(OC(F)F)n(C)n3)c12` [Compound 254, N-(5-(Difluoromethoxy)-1-methyl-1H-pyrazol-3-yl)-5-methyl-2-(1-methyl-1H-imidazol-2-yl)-6-(1-methyl-1H-pyrazol-3-yl)pyrrolo[2,1-f][1,2,4]triazin-4-amine], the pIC50 in assay [1] is below 6.00. In addition, the “% inh” value in assay [2] is reported as “B* (B* = 26-45% activation)”. Moreover, the inhibition at 10 µM in the assay with TNF-alpha is 0%.
Regarding `Cc1c(-c2ccn(C)n2)cn2nc(-c3nccn3C)nc(Nc3cc[nH]n3)c12` [Compound 256, 5-Methyl-2-(1-methyl-1H-imidazol-2-yl)-6-(1-methyl-1H-pyrazol-3-yl)-N-(1H-pyrazol-3-yl)pyrrolo[2,1-f][1,2,4]triazin-4-amine], in assay [1], the pIC50 was below 6.00. Besides, the “% inh” value in assay [2] is on record as “D* (D* = 76-100% activation)”. The inhibition at 10 µM with TNF-alpha turned out to be 0%.
Taken in the same sequence, the figures for `Cc1c(-c2ccn(C(C)C)n2)cn2nc(-c3nccn3C)nc(Nc3ncccn3)c12` [Compound 54, 6-(1-Isopropyl-1H-pyrazol-3-yl)-5-methyl-2-(1-methyl-1H-imidazol-2-yl)-N-(pyrimidin-2-yl)pyrrolo[2,1-f][1,2,4]triazin-4-amine] were above 6.82, “A (A = 1-25% inhibition)” and 1 to 24%.
On to `COc1cc(Nc2nc(-c3nccn3C)nn3cc(-c4cccnc4)c(C)c23)ncn1` [Compound 48, N-(6-Methoxypyrimidin-4-yl)-5-methyl-2-(1-methyl-1H-imidazol-2-yl)-6-(pyridin-3-yl)pyrrolo[2,1-f][1,2,4]triazin-4-amine], for which the pIC50 in assay [1] is above 6.82. Besides, in assay [2], the “% inh” value was “B (B = 26-45% inhibition)”. Besides, in the assay on TNF-alpha, the inhibition at 10 µM was in the range of 1 to 24%.
Taken in the same sequence, the figures for `COc1cc(Nc2nc(-c3nccn3C)nn3cc(-c4ccn(C)n4)c(C)c23)ncc1-n1cnc(C)c1` [Compound 244, N-(4-Methoxy-5-(4-methyl-1H-imidazol-1-yl)pyridin-2-yl)-5-methyl-2-(1-methyl-1H-imidazol-2-yl)-6-(1-methyl-1H-pyrazol-3-yl)pyrrolo[2,1-f][1,2,4]triazin-4-amine] were above 6.82, “A* (A* = 1-25% activation)” and 0%.
Taken in the same sequence, the figures for `COc1cc(Nc2nc(-c3nccn3C)nn3cc(-c4ccn(C(C)C)n4)c(C)c23)n[nH]1` [Compound 51, 6-(1-Isopropyl-1H-pyrazol-3-yl)-N-(5-methoxy-1H-pyrazol-3-yl)-5-methyl-2-(1-methyl-1H-imidazol-2-yl)pyrrolo[2,1-f][1,2,4]triazin-4-amine] were below 6.00, “D (D = 76-100% inhibition)” and 25 to 49%.
Taken in the same sequence, the figures for `Cc1c(-c2ccn(C(C)C)n2)cn2nc(-c3nccn3C)nc(Nc3ccn(C(C)C)n3)c12` [Compound 72, N,6-bis(1-Isopropyl-1H-pyrazol-3-yl)-5-methyl-2-(1-methyl-1H-imidazol-2-yl)pyrrolo[2,1-f][1,2,4]triazin-4-amine] were below 6.00, 0 (0 = 0% inhibition) and 1 to 24%.
Regarding `CCn1ccc(-c2cn3nc(-c4nccn4C)nc(Nc4cc(OC)ncn4)c3c2C)n1` [Compound 64, 6-(1-Ethyl-1H-pyrazol-3-yl)-N-(6-methoxypyrimidin-4-yl)-5-methyl-2-(1-methyl-1H-imidazol-2-yl)pyrrolo[2,1-f][1,2,4]triazin-4-amine], the pIC50 in assay [1] is above 6.82. Moreover, the “% inh” value in assay [2] is reported as “A (A = 1-25% inhibition)”. Moreover, the inhibition at 10 µM with TNF-alpha was 0%.
With `Cc1c(-c2ccn(C(C)C)n2)cn2nc(-c3nccn3C)nc(Nc3ccncc3)c12` [Compound 52, 6-(1-Isopropyl-1H-pyrazol-3-yl)-5-methyl-2-(1-methyl-1H-imidazol-2-yl)-N-(pyridin-4-yl)pyrrolo[2,1-f][1,2,4]triazin-4-amine], the pIC50 in assay [1] is below 6.00. Moreover, the “% inh” value in assay [2] is on record as “D (D = 76-100% inhibition)”. Further, the inhibition at 10 µM in the assay on TNF-alpha lay in the range of 1 to 24%.

(Values after patent publication US12459951B2, “Compounds that interact with RAS superfamily proteins for treatment of cancers, inflammatory diseases, rasopathies, and fibrotic disease” (SHY Therapeutics, LLC, priority 2022, dated 2025).)
